Source: patent US20250136607A1 (REGOR PHARMACEUTICALS, INC., priority 2021, published 2025)

These compounds were tested against Protein arginine deiminase 4 (PAD4) (Homo sapiens, UniProt Q9UM07) (assay: PAD4 ammonia release assay). Details: PAD4 ammonia release assay, BAEE substrate, 60 min at RT; read-out: Average IC50 Abs.
Format: biochemical
Outline: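 Ammonia release from BAEE substrate (2× mix 600 μM) was measured after 60 min at RT, following 15 min enzyme–compound preincubation (PAD4 2× 20 nM; pH 8.0 HEPES, 2 mM CaCl2, TCEP; 1.25% DMSO). Detection used OPA/DTT/EDTA for 120 min. % inhibition was taken versus reference-compound and DMSO controls; IC50 by four-parameter logistic fit.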

Sequence of Protein arginine deiminase 4 (PAD4) (Q9UM07 whole entry): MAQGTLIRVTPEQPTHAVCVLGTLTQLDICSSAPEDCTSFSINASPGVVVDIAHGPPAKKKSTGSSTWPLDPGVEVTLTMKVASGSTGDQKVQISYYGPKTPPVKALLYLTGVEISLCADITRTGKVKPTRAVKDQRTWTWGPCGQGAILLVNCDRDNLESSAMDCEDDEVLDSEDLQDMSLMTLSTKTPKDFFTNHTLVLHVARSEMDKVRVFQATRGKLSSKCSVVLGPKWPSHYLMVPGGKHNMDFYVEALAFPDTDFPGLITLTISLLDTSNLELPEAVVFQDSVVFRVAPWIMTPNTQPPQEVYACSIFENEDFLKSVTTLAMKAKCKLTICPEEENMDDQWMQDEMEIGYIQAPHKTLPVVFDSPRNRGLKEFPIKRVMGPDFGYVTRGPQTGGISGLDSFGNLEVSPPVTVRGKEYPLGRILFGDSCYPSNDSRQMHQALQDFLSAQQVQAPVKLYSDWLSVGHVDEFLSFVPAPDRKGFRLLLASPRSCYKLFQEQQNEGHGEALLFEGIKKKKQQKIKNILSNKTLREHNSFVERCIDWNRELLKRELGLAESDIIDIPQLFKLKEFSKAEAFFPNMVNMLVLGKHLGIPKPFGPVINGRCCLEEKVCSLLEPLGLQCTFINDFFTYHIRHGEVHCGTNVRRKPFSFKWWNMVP

Compared with `CCC1C(=O)Nc2c(C#N)ccc3cc(-c4nc5cc(C(=O)N6C[C@H]7CC[C@@H]6[C@@H]7N)cc(F)c5n4C)n1c23` (stereo partly drawn) [Example 127, 5-(5-((1R,4R,7R)-7-amino-2-azabicyclo[2.2.1]heptane-2-carbonyl)-7-fluoro-1-methyl-1H-benzo[d]imidazol-2-yl)-3-ethyl-2-oxo-2,3-dihydro-1H-pyrrolo[1,2,3-de]quinoxaline-9-carbonitrile], `CCC1CNc2c(C#N)ccc3cc(-c4nc5cc(C(=O)N6C[C@H]7CC[C@@H]6[C@@H]7N)cc(F)c5n4C)n1c23` (stereo partly drawn) [Example 128, 5-(5-((1R,4R,7R)-7-amino-2-azabicyclo[2.2.1]heptane-2-carbonyl)-7-fluoro-1-methyl-1H-benzo[d]imidazol-2-yl)-3-ethyl-2,3-dihydro-1H-pyrrolo[1,2,3-de]quinoxaline-9-carbonitrile] is lower in IC50: 500 to 5000 nM for the first, 100 to 500 nM for the second. The second is the more potent here.

First: CCC1C(=O)Nc2cccc3cc(-c4nc5cc(C(=O)N6C[C@H]7CC[C@@H]6[C@@H]7N)cc(F)c5n4C)n1c23 (stereo partly drawn) [Example 129, 5-(5-((1R,4R,7R)-7-amino-2-azabicyclo[2.2.1]heptane-2-carbonyl)-7-fluoro-1-methyl-1H-benzo[d]imidazol-2-yl)-3-ethyl-1H-pyrrolo[1,2,3-de]quinoxalin-2(3H)-one]
Second: CC[C@H]1[C@H](C)Nc2cccc3cc(-c4nc5cc(C(=O)N6C[C@H]7CC[C@@H]6[C@@H]7N)cc(F)c5n4C)n1c23 [Example 134, trans-((1R,4R,7R)-7-amino-2-azabicyclo[2.2.1]heptan-2-yl)(2-(3-ethyl-2-methyl-2,3-dihydro-1H-pyrrolo[1,2,3-de]quinoxalin-5-yl)-7-fluoro-1-methyl-1H-benzo[d]imidazol-5-yl)methanone]
The IC50 of the first is lower: 100 to 500 nM for the first, > 5000 nM for the second.

`CCC1CNc2c(F)ccc3cc(-c4nc5cc(C(=O)N6C[C@H]7CC[C@@H]6[C@@H]7N)cc(F)c5n4C)n1c23` (stereo partly drawn) [Example 131, ((1R,4R,7R)-7-amino-2-azabicyclo[2.2.1]heptan-2-yl)(2-(3-ethyl-9-fluoro-2,3-dihydro-1H-pyrrolo[1,2,3-de]quinoxalin-5-yl)-7-fluoro-1-methyl-1H-benzo[d]imidazol-5-yl)methanone] and `CCC1CNc2c(C)ccc3cc(-c4nc5cc(C(=O)N6C[C@H]7CC[C@@H]6[C@@H]7N)cc(F)c5n4C)n1c23` (stereo partly drawn) [Example 132, ((1R,4R,7R)-7-amino-2-azabicyclo[2.2.1]heptan-2-yl)(2-(3-ethyl-9-methyl-2,3-dihydro-1H-pyrrolo[1,2,3-de]quinoxalin-5-yl)-7-fluoro-1-methyl-1H-benzo[d]imidazol-5-yl)methanone] fall in the same range of IC50: 100 to 500 nM for the first, 100 to 500 nM for the second.

`CCC1CNc2nccc3cc(-c4nc5cc(C(=O)N6C[C@H]7CC[C@@H]6[C@@H]7N)cc(F)c5n4C)n1c23` (stereo partly drawn) [Example 135, ((1R,4R,7R)-7-amino-2-azabicyclo[2.2.1]heptan-2-yl)(2-(3-ethyl-4,5-dihydro-3H-2a, 5,6-triazaacenaphthylen-2-yl)-7-fluoro-1-methyl-1H-benzo[d]imidazol-5-yl)methanone] and `CCC1CNc2nccc3cc(-c4nc5cc(C(=O)N6C[C@H](N)C[C@@H](F)C6)cc(F)c5n4C)n1c23` (stereo partly drawn) [Example 136, ((3R,5R)-3-amino-5-fluoropiperidin-1-yl)(2-(3-ethyl-4,5-dihydro-3H-2a, 5,6-triazaacenaphthylen-2-yl)-7-fluoro-1-methyl-1H-benzo[d]imidazol-5-yl)methanone] cannot be ordered by IC50: > 5000 nM for the first, > 5000 nM for the second.

`CCC1C(=O)Nc2cccc3cc(-c4nc5cc(C(=O)N6C[C@H]7CC[C@@H]6[C@@H]7N)cnn5c4C)n1c23` (stereo partly drawn) [Example 137, 2-[7-[(1R,4R,7R)-7-amino-2-azabicyclo[2.2.1]heptane-2-carbonyl]-3-methyl-imidazo[1,2-b]pyridazin-2-yl]-11-ethyl-1,9-diazatricyclo[6.3.1.04,12]dodeca-2,4,6,8(12)-tetraen-10-one] and `CCC1CNc2cccc3cc(-c4nc5cc(C(=O)N6C[C@H]7CC[C@@H]6[C@@H]7N)cnn5c4C)n1c23` (stereo partly drawn) [Example 138, [(1R,4R,7R)-7-amino-2-azabicyclo[2.2.1]heptan-2-yl]-[2-(11-ethyl-1,9-diazatricyclo[6.3.1.0^4,12]dodeca-2,4,6,8(12)-tetraen-2-yl)-3-methyl-imidazo[1,2-b]pyridazin-7-yl]methanone] fall in the same range of IC50: 500 to 5000 nM for the first, 500 to 5000 nM for the second.

First: CCC1CC(=O)c2cccc3cc(-c4nc5cc(C(=O)N6C[C@H]7CC[C@@H]6[C@@H]7N)cc(F)c5n4C)n1c23 (stereo partly drawn) [Example 139, 2-(5-((1R,4R,7R)-7-amino-2-azabicyclo[2.2.1]heptane-2-carbonyl)-7-fluoro-1-methyl-1H-benzo[d]imidazol-2-yl)-4-ethyl-4,5-dihydro-6H-pyrrolo[3,2,1-ij]quinolin-6-one]
Second: CN1C(=O)Cc2c1ccc1cc(-c3nc4cc(C(=O)N5C[C@H]6CC[C@@H]5[C@@H]6N)cc(F)c4n3C)n(CC3CC3)c21 [Example 146, 2-(5-((1R,4R,7R)-7-amino-2-azabicyclo[2.2.1]heptane-2-carbonyl)-7-fluoro-1-methyl-1H-benzo[d]imidazol-2-yl)-1-(cyclopropylmethyl)-6-methyl-6,8-dihydropyrrolo[2,3-e]indol-7(1H)-one]
The IC50 of the first is lower: 500 to 5000 nM for the first, > 5000 nM for the second. The first is the more potent here.

`Cn1c(-c2cc3ccc4c(c3n2CC2CC2)NC(=O)C4(C)C)nc2cc(C(=O)N3C[C@H]4CC[C@@H]3[C@@H]4N)cc(F)c21` [Example 141, 7-(5-((1R,4R,7R)-7-amino-2-azabicyclo[2.2.1]heptane-2-carbonyl)-7-fluoro-1-methyl-1H-benzo[d]imidazol-2-yl)-8-(cyclopropylmethyl)-3,3-dimethyl-3,8-dihydropyrrolo[3,2-g]indol-2(1H)-one] and `Cn1c(-c2cc3ccc4c(c3n2CC2CC2)NCC4(C)C)nc2cc(C(=O)N3C[C@H]4CC[C@@H]3[C@@H]4N)cc(F)c21` [Example 142, ((1R,4R,7R)-7-amino-2-azabicyclo[2.2.1]heptan-2-yl)(2-(1-(cyclopropylmethyl)-6,6-dimethyl-1,6,7,8-tetrahydropyrrolo[3,2-g]indol-2-yl)-7-fluoro-1-methyl-1H-benzo[d]imidazol-5-yl)methanone] fall in the same range of IC50: 500 to 5000 nM for the first, 500 to 5000 nM for the second.

First: Cn1c(-c2cc3ccc4c(c3n2CC2CC2)CCN4)nc2cc(C(=O)N3C[C@H]4CC[C@@H]3[C@@H]4N)cc(F)c21 [Example 143, ((1R,4R,7R)-7-amino-2-azabicyclo[2.2.1]heptan-2-yl)(2-(1-(cyclopropylmethyl)-1,6,7,8-tetrahydropyrrolo[2,3-e]indol-2-yl)-7-fluoro-1-methyl-1H-benzo[d]imidazol-5-yl)methanone]
Second: Cn1c(-c2cc3ccc4c(c3n2CC2CC2)CCNC4)nc2cc(C(=O)N3C[C@H]4CC[C@@H]3[C@@H]4N)cc(F)c21 [Example 151, ((1R,4R,7R)-7-amino-2-azabicyclo[2.2.1]heptan-2-yl)(2-(1-(cyclopropylmethyl)-6,7,8,9-tetrahydro-1H-pyrrolo[2,3-f]isoquinoline-2-yl)-7-fluoro-1-methyl-1H-benzo[d]imidazol-5-yl)methanone]
The IC50 of the first is lower: 100 to 500 nM for the first, 500 to 5000 nM for the second.

First: Cn1c(-c2cc3ccc4[nH]ccc4c3n2CC2CC2)nc2cc(C(=O)N3C[C@H]4CC[C@@H]3[C@@H]4N)cc(F)c21 [Example 144, ((1R,4R,7R)-7-amino-2-azabicyclo[2.2.1]heptan-2-yl)(2-(1-(cyclopropylmethyl)-1,6-dihydropyrrolo[2,3-e]indol-2-yl)-7-fluoro-1-methyl-1H-benzo[d]imidazol-5-yl)methanone]
Second: Cn1c(-c2cc3ccc4c(Cl)c[nH]c4c3n2CC2CC2)nc2cc(C(=O)N3C[C@H]4CC[C@@H]3[C@@H]4N)cc(F)c21 [Example 149, ((1R,4R,7R)-7-amino-2-azabicyclo[2.2.1]heptan-2-yl)(2-(6-chloro-1-(cyclopropylmethyl)-1,8-dihydropyrrolo[3,2-g]indol-2-yl)-7-fluoro-1-methyl-1H-benzo[d]imidazol-5-yl)methanone]
The IC50 of the first is lower: 100 to 500 nM for the first, 500 to 5000 nM for the second.

First: Cn1c(-c2cc3ccc4c(c3n2CC2CC2)CC(=O)N4)nc2cc(C(=O)N3C[C@H]4CC[C@@H]3[C@@H]4N)cc(F)c21 [Example 145, 2-(5-((1R,4R,7R)-7-amino-2-azabicyclo[2.2.1]heptane-2-carbonyl)-7-fluoro-1-methyl-1H-benzo[d]imidazol-2-yl)-1-(cyclopropylmethyl)-6,8-dihydropyrrolo[2,3-e]indol-7(1H)-one]
Second: CN1CCc2c(ccc3cc(-c4nc5cc(C(=O)N6C[C@H]7CC[C@@H]6[C@@H]7N)cc(F)c5n4C)n(CC4CC4)c23)C1 [Example 152, ((1R,4R,7R)-7-amino-2-azabicyclo[2.2.1]heptan-2-yl)(2-(1-(cyclopropylmethyl)-7-methyl-6,7,8,9-tetrahydro-1H-pyrrolo[2,3-f]isoquinolin-2-yl)-7-fluoro-1-methyl-1H-benzo[d]imidazol-5-yl)methanone]
The IC50 of the first is higher: 500 to 5000 nM for the first, 100 to 500 nM for the second.

First: Cn1c(-c2cc3ccn4ccnc4c3n2CC2CC2)nc2cc(C(=O)N3C[C@H]4CC[C@@H]3[C@@H]4N)cc(F)c21 [Example 150, ((1R,4R,7R)-7-amino-2-azabicyclo[2.2.1]heptan-2-yl)(2-(9-(cyclopropylmethyl)-9H-imidazo[1,2-a]pyrrolo[2,3-c]pyridin-8-yl)-7-fluoro-1-methyl-1H-benzo[d]imidazol-5-yl)methanone]
Second: CC(C)N1CCc2c(ccc3cc(-c4nc5cc(C(=O)N6C[C@H]7CC[C@@H]6[C@@H]7N)cc(F)c5n4C)n(CC4CC4)c23)C1 [Example 154, ((1R,4R,7R)-7-amino-2-azabicyclo[2.2.1]heptan-2-yl)(2-(1-(cyclopropylmethyl)-7-isopropyl-6,7,8,9-tetrahydro-1H-pyrrolo[2,3-f]isoquinolin-2-yl)-7-fluoro-1-methyl-1H-benzo[d]imidazol-5-yl)methanone]
The IC50 of the first is lower: 100 to 500 nM for the first, 500 to 5000 nM for the second.
